According to BigSolDB 2.1:

NC[C@H]1O[C@H](O[C@H]2[C@H](O)[C@@H](O[C@H]3O[C@H](CO)[C@@H](O)[C@H](N)[C@H]3O)[C@H](N)C[C@@H]2N)[C@H](N)C[C@@H]1O
solubility (mole fraction)
Settings | 283.15 K | 288.15 K | 293.15 K | 294.15 K | 298.15 K | 303.15 K | 308.15 K | 313.15 K | 318.15 K
in DMF | – | – | 0.000144 | – | 0.000181 | 0.000249 | 0.000394 | 0.000663 | 0.000942
in DMSO | – | – | – | 0.0124 | 0.014 | 0.018 | 0.0236 | 0.0282 | 0.0351
in ethanol | 0.000436 | 0.000556 | 0.000708 | – | 0.00114 | 0.00191 | 0.00243 | – | –
in methanol | – | 0.000129 | 0.000133 | – | 0.000189 | 0.000284 | 0.000433 | 0.000635 | –
